# Experimental data reported in US20080221214A1, “Process for the preparation of "Urchym" a urease and alpha-chymotrypsin enzyme inhibitory drug” (priority 2006, published 2008).
# Tests used:
# Jack bean urease = target: T1, Jack bean urease (Canavalia ensiformis, UniProt P07374); experiment: biochemical
# T1 construct: purchased Sigma-Aldrich
# Method: Reaction mixtures comprising a 25 μL solution of enzyme (Jack bean urease, Sigma-Aldrich, specific activity 15 EU/mg) and 55 μL of buffer (0.01 M K2HPO43H2O, 1 MM EDTA 0.01 M LiCl; pH 8.2) containing 100 mM urea were incubated with 5 μL of the test compounds (0.01 μM-1 mM, dissolved in DMSO) at 30° C. for 15 min in 96-well plates. Urease activity was determined by measuring ammonia production using the indophenol method, 45 μL, of phenol reagent (1% w/v phenol and 0.005% w/v sodium nitroprusside) and 70 μL of alkali reagent (0.5% w/v NaOH and 0.1% w/v NaOCI) were added to each well (the final reaction volume was 200 μL). The increasing absorbance at 630 nm was measured after 50 min using a microplate reader (Molecular Device). All reactions were performed in triplicate. The results (change in absorbance per min) were processed using SoftMax Pro software (Molecular Device). Percent inhibitions were calculated using the formula 100−(ODtest well/ODcontrol×100).
# α-chymotrypsin = target: T2, α-chymotrypsin (Bos taurus, UniProt P00766); experiment: α-Chymotrypsin assay and inhibition; type: biochemical; details: substrate N-succinyl-phenylalanine-p-nitroanilide, pH 7.6, 37° C., 30 min pre-incubation; read-out: IC50 value, α-chymotrypsin inhibitory activity
# T2 construct: purchased Sigma-Aldrich
# Method: For the determination of α-chymotrypsin inhibitory activity the literature protocol was followed. In brief α-chymotrypsin (9 units/mL in 50 mM Tris-HCl buffer, pH 7.6; Sigma-Aldrich) was pre-incubated with the compound (3.02×10^−5 g/100 μL) for 30 min at 37° C. and then 100 μL of substrate solution (N-succinyl-phenylalanine-p-nitroanilide; 1 mg/mL) in 50 mM Tris-HCl buffer, pH 7.6) was added to start the enzyme reaction. The absorbance of released p-nitroaniline was continuously monitored at 410 nm until a significant color change had achieved. All reactions were performed in triplicate. Percent inhibitions were calculated using the formula 100-(ODtest well/ODcontrol×100).
# T1 sequence (P07374 whole entry, looked up): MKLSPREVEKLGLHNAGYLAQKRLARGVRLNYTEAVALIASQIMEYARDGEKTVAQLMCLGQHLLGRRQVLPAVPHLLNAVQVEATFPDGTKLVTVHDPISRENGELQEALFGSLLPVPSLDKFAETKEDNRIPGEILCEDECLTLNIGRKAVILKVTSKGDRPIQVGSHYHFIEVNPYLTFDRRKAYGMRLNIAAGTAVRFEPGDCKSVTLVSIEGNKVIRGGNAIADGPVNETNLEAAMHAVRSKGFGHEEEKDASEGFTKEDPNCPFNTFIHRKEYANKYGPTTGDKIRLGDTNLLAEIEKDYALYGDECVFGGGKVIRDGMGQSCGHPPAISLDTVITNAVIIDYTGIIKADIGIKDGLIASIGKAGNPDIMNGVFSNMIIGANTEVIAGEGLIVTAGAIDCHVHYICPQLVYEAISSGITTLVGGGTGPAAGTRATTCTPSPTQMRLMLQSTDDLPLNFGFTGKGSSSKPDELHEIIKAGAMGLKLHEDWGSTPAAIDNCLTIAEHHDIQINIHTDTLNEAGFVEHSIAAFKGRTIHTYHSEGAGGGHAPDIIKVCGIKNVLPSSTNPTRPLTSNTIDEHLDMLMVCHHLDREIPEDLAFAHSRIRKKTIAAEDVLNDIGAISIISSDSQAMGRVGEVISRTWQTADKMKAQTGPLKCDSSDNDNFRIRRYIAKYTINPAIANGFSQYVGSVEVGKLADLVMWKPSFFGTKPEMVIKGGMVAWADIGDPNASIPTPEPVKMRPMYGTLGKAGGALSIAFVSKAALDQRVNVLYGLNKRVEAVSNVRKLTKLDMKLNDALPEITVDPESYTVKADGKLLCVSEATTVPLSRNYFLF
smiles,measurement,setting,value
"O=C(Nc1ccc([N+](=O)[O-])cc1)Nc1ccc([N+](=O)[O-])cc1 [Urchym, N-4-nitrophenyl-N′-4′-nitrophenylurea]",IC50,Jack bean urease,1.25 µM
same,IC50,α-chymotrypsin,3.15 ± 0.14 µM
